What all share (test): Enzyme Assay
Assay [1] deals with CDK2 (UniProt P24941).
Assay [2] concerns the target CDK2 (UniProt P24941). This is another data set of the same source.
For assay [3], the target named is CDK2 (UniProt P24941). This is another data set of the same source.

pIC50: −log10 of the molar value. “And” between values parts separate entries of the source, which are not always exact repeats. Equal entries are not always repeated.

For orientation: pIC50 means −log10 of the IC50, conventionally taken in molar units. A low value points to a high IC50.

Take `O=c1ccc2cnc(Nc3ccc4cn[nH]c4c3)nc2n1CC1CC1`: the pIC50 was 6.59 against CDK2 [1] and 6.70 on CDK2 [2].
With `O=c1ccc2cnc(Nc3ccc(Br)c(C(F)(F)F)c3)nc2n1C1CCCC1`, the pIC50 at CDK2 [1] was 6.66; on CDK2 [2], 6.82.
In the case of `CCC(CC)n1c(=O)ccc2cnc(Nc3cccc(C(F)(F)F)c3)nc21`, the figures for the pIC50 at CDK2 [1] and at CDK2 [2] were 6.22 and 6.88, respectively.
On to `Cc1cc(Nc2ncc3ccc(=O)n(C(C)C)c3n2)ccc1Cl`, for which the results for the pIC50 against CDK2 [1] and at CDK2 [2] were 6.46 and 6.66, respectively.
For `O=c1ccc2cnc(Nc3cccc(OC(F)(F)C(F)F)c3)nc2n1C1CC2CCC1C2` (configuration not stated), the pIC50 against CDK2 [1] is 5.00; on CDK2 [3] it was 6.56.
`CC(C)n1c(=O)ccc2cnc(Nc3ccc(F)c(Cl)c3)nc21` gave a pIC50 against CDK2 [1] of 6.85.
With `COc1ccc(Nc2ncc3ccc(=O)n(C4CCCC4)c3n2)cc1F`, the pIC50 was 7.12 at CDK2 [1] and 7.46 against CDK2 [2].
As to `COc1ccc(Nc2ncc3ccc(=O)n(C(C)C)c3n2)cc1`, the values for the pIC50 at CDK2 [1] and against CDK2 [3] were 6.27 and 6.41, respectively.
As for `CCCn1c(=O)ccc2cnc(Nc3cc(OC)c(OC)c(OC)c3)nc21`, the negative logarithm of the IC50 (pIC50) on CDK2 [1] was 5.78.
Consider `CCCn1c(=O)ccc2cnc(Nc3ccc(OC)c(O)c3)nc21`, for which the pIC50 at CDK2 [1] was 6.02 and 5.96; against CDK2 [2], 6.62 and 6.17.
Turning to `CCCn1c(=O)ccc2cnc(Nc3ccc(I)c(Cl)c3)nc21`, the figures for the pIC50 against CDK2 [1] and against CDK2 [2] were 6.09 and 6.74, respectively.
Consider `CCCn1c(=O)ccc2cnc(N(C)c3ccc(O)c(N4CCOCC4)c3)nc21`, for which the negative logarithm of the IC50 (pIC50) is 5.96 against CDK2 [1] and 6.17 on CDK2 [2].
With `O=c1ccc2cnc(Nc3ccc(-n4cccn4)cc3)nc2n1C1CCCC1`, the pIC50 was 7.06 against CDK2 [1] and 7.45 against CDK2 [3].
`CCCn1c(=O)ccc2cnc(Nc3ccc(NC(=O)OC(C)(C)C)cc3)nc21`: the pIC50 was 5.61 at CDK2 [1] and 6.09 against CDK2 [2].
`CCC(CC)n1c(=O)ccc2cnc(Nc3ccc(F)c(C)c3)nc21` showed a pIC50 at CDK2 [1] of 6.81.
`CCCCn1c(=O)ccc2cnc(Nc3cc(Cl)cc(Cl)c3)nc21` gave a pIC50 against CDK2 [1] of 5.42.
As for `O=c1ccc2cnc(Nc3ccc(N4CCCCC4)cc3)nc2n1C1CCCCC1`, the values for the pIC50 at CDK2 [1] and at CDK2 [3] were 6.71 and 7.18, respectively.
With `O=c1ccc2cnc(Nc3ccc(N4CCC(CCO)CC4)cc3)nc2n1C1CCCCC1`, the pIC50 at CDK2 [1] was 7.52; against CDK2 [3] it was 7.85.
Regarding `O=c1ccc2cnc(Nc3ccc(N4CCCCC4)cc3)nc2n1CCCOC1CCCCO1` (configuration not stated), the pIC50 was 5.72 on CDK2 [1] and 6.55 at CDK2 [3].
On to `O=c1ccc2cnc(Nc3ccc(N4CCCC(O)C4)cc3)nc2n1C1CCCC1` (configuration not stated), for which the pIC50 at CDK2 [1] was 7.36.
`O=c1ccc2cnc(Nc3c(F)cc(F)cc3F)nc2n1C1CCCC1`: the pIC50 is 6.48 on CDK2 [1] and 6.33 against CDK2 [2].
